Assays:
[1] = tested on: MG-63 xenografts; experiment: Growth of MG-63 xenografts in athymic nude mice; assay type: in vivo
Method: All animal experiments strictly followed the guidelines of Cedars-Sinai Medical Center and the National Institute of Health (NIH). Female nu/nu athymic nude mice (5-6 weeks old; average weight 21 g; specific pathogen-free) from Harlan Laboratories (Indianapolis, Ind.) were maintained in pathogen-free condition with sterilized chow and water. 5×10^6 cells of MG-63 cells were mixed with 200 μl of Matrigel solution (BD Biosciences) per injection, and the mixture was injected subcutaneously on the upper flanks of nude mice. After 24 hours, tumor size was measured, and any outliers were ruled out by one-way analysis of variance (ANOVA) test. […] The conversion was made using dose translation formula by Reagan-Shaw et al., (15). […] Body weights were monitored every 2 days. Tumor size was measured every 2 days, and the tumor volume was calculated using the following formula: A (length)×B (width)×C (height)×0.5236 (16). The experiment was stopped at day 35, and all mice were sacrificed. The presence of metastatic spread was examined macroscopically at the time of autopsy followed by histological examination. At least two tumors from each group were snap-frozen in liquid nitrogen for Western blotting.

[2] = tested on: clonogenic hematopoietic cells; experiment: Colony-forming cell (CFC) assays of bone marrow; conditions: day 35, 2 × 10^4 cells/well
Method: (§1) Whole blood samples were obtained by submandibular bleeding and serum samples were harvested with serum separator tubes (BD Biosciences). Blood count and serum chemistry results were obtained by the Hemagen Analyst Benchtop Chemistry System (Hemagen Diagnostics, Inc. Columbia, Md.). Colony-forming cell (CFC) assays were performed as previously described (18).

[3] = tested on: MG-63 xenografts; experiment: Immunohistochemistry of xenografts (HE, Ki-67, TUNEL); assay type: in vivo, mice; conditions: LD-CuB 0.5 mg/kg; day 35
From the text: At autopsy, tumors and internal organs including liver, spleen, kidneys were excised, weighed, and then fixed in 10% PBS-buffered formalin and maintained in 70% ethanol. For IHC, fixed tumors and organs were embedded in paraplast (Oxford Labware, St. Louis, Mo.), cut in 6 μm thick sections, and stained with hematoxylin and eosin (HE) for histopathological examination.
For Ki-67 proliferation assay, tumor sections were deparaffinized with xylene and rehydrated through graded ethanol. Endogenous peroxidase activity was blocked with 3% hydrogen peroxide in methanol. […] After incubation, tumor sections were stained with diaminobenzidine (DAB) and counterstained with hematoxylin. Terminal deoxynucleotidyl transferase dUTP nick end labeling (TUNEL) apoptosis assay was performed using ApopTaq Plus Peroxidase In Situ Apoptosis Kit (Millipore) according to the manufacturer's protocol. Percent positive cells in representative microscopic fields were counted using ImageJ (17).

[4] = target: mTOR (Homo sapiens, UniProt P42345); experiment: DARTS analysis, mTOR; assay type: binding; design: endogenous in cells; host or cells: MG-63 whole-cell lysate; conditions: MG-63 whole-cell lysates; 10, 100, or 1000 nM, 30 min
Method: Direct interaction of CuB and mTOR was assessed by DARTS as described in the original article with some modifications (14). Briefly, confluent MG-63 cells were harvested and lysed with lysis buffer (1% Triton X-100, 150 mM NaCl. 100 mM Tris-HCl, pH 7.4, 1 mM EDTA, and 1 mM EGTA, pH 8.0) supplemented with protease inhibitor (Roche, San Francisco, Calif.), 0.2 mM PMSF (Roche), and 0.2 mM Na3VO4 (Sigma). Cell lysates were incubated with 0.1 volume of increasing concentrations (10-1000 nM) of either DMSO or CuB at room temperature for 30 min. Lysates were then proteolyzed with thermolysin (Sigma) at room temperature for 3 min. Reaction was stopped by adding 0.5 M EDTA solution and 2× Laemmli sample buffer (Bio-Rad, Hercules, Calif.) with 5% β-mercaptoethanol (Sigma). Western blotting was performed as described below.

[5] = tested on: SAOS-2 cells; experiment: Annexin V-FITC apoptosis assay, SAOS-2; assay type: cell-based, human; conditions: at ED50, 72 hours of exposure
Method: Cells were harvested and fixed with 70% ethanol at regular time intervals. Fixed cells were stained with propidium iodide (PI) for flow cytometry analysis using BD FACScan (BD Biosciences, San Jose, Calif.). Distribution of cell cycle was analyzed by ModFit LT V2.0 software (Verity Software House, Topsham, Me.). […] After 24, 48, and 72 hours of exposure, cells were harvested and stained with PI and fluorescein isothiocyanate (FITC) using Annexin V-FITC apoptosis detection kit (BD Biosciences) according to the manufacturer's protocol. Cells were subjected to flow cytometry analysis within one hour of staining.

[6] = Serum chemistry in mice; assay type: in vivo; conditions: day 35
Method: as §1

[7] = tested on: poly ADP-ribose polymerase (PARP); experiment: Western blotting, PARP cleavage; assay type: cell-based, human; conditions: MG-63 and SAOS-2 cells
Method: Changes in protein level by CuB were checked by Western blotting. […] After 2, 9, and 20 hours of exposure, cells were harvested and immediately lysed with RIPA buffer (Millipore—Upstate, Temecula, Calif.) supplemented with protease inhibitor cocktail (Roche, San Francisco, Calif.), 0.5 mM PMSF (Roche), and 50 mM NaF (Sigma). After 20 minutes of incubation on ice, protein concentrations were measured by Bradford assay with Bio Rad protein assay solution (Bio-Rad, Hercules, Calif.) and samples were adjusted to the same protein concentration. Samples were mixed with 2× Laemmli sample buffer (Bio-Rad) with 5% β-mercaptoethanol (Sigma) and incubated at 95° C. for 10 min to denature the protein. After brief incubation on ice, proteins were separated by SDS-PAGE, transferred to nitrocellulose membrane (Sigma), and blotted with antibodies from either Cell Signaling Technology (Danvers, Mass.) or Santa Cruz Biotechnology (Santa Cruz, Calif.). Target proteins were visualized by Supersignal West Dura Substrate (Thermo-Pierce, Rockford, Ill.). GAPDH protein was used as a loading control.

Q: Which tumor growth inhibition ([1]; HD-CuB 1.0 mg/kg alone) does the source give for `CC(=O)OC(C)(C)/C=C/C(=O)[C@](C)(O)[C@H]1[C@H](O)C[C@@]2(C)[C@@H]3CC=C4[C@H](C[C@H](O)C(=O)C4(C)C)[C@]3(C)C(=O)C[C@]12C` [CuB, cucurbitacin B] here?
A: The tumor growth inhibition was “strong growth inhibition”.

Q: And the tumor volume ([1]; LD-CuB 0.5 mg/kg, single agent)?
A: Its tumor volume is “allowed the tumor volume to increase slightly from its original size”.

Q: And the “BFU-E, number of colonies” value ([2]; HD-CuB 1.0 mg/kg)?
A: Its value is 8.3 ± 1.6.

Q: And the “CFU-GEMM, number of colonies” value ([2]; HD-CuB 1.0 mg/kg)?
A: The value was 3.8 ± 0.8.

Q: And the “CFU-GM, number of colonies” value ([2]; HD-CuB 1.0 mg/kg)?
A: Its value is 64.6 ± 4.6.

Q: What about the “BFU-E, number of colonies” value ([2]; LD-CuB 0.5 mg/kg) of the same compound?
A: Its value is 9.7 ± 1.4.

Q: What about the “CFU-GEMM, number of colonies” value ([2]; LD-CuB 0.5 mg/kg) of the same compound?
A: The value was 4.2 ± 0.8.

Q: What about the “CFU-GM, number of colonies” value ([2]; LD-CuB 0.5 mg/kg) of the same compound?
A: Its value is 69.8 ± 3.0.

Q: What about the HE-stained tumors [3] of the same compound?
A: Its HE-stained tumors is “decreased tumor area and smaller blood vessels”.

Q: And the “protection of mTOR protein from thermolysin proteolysis (DARTS)” value [4]?
A: Its value is “dose-dependent protection of mTOR protein from thermolysin proteolysis”.

Q: And the apoptotic cells [5]?
A: The apoptotic cells was 96%.

Q: And the CK ([6]; HD-CuB 1.0 mg/kg)?
A: Its CK is 156.0 ± 33.9 U/l.

Q: And the albumin ([6]; HD-CuB 1.0 mg/kg)?
A: Its albumin is 3.4 ± 0.1 g/dL.

Q: And the bilirubin ([6]; HD-CuB 1.0 mg/kg)?
A: The bilirubin was 0.06 ± 0.00 mg/dL.

Q: And the cholesterol ([6]; HD-CuB 1.0 mg/kg)?
A: Its cholesterol is 172.0 ± 8.5 mg/dL.

Q: And the creatine ([6]; HD-CuB 1.0 mg/kg)?
A: Its creatine is 0.42 ± 0.25 mg/dL.

Q: What about the globulin ([6]; HD-CuB 1.0 mg/kg) of the same compound?
A: The globulin was 1.6 ± 0.2 g/dL.

Q: What about the total protein ([6]; HD-CuB 1.0 mg/kg) of the same compound?
A: The total protein was 5.0 ± 0.1 g/dL.

Q: What about the uric acid ([6]; HD-CuB 1.0 mg/kg) of the same compound?
A: Its uric acid is 5.5 ± 0.6 mg/dL.

Q: What about the CK ([6]; LD-CuB 0.5 mg/kg) of the same compound?
A: Its CK is 140.5 ± 70.0 U/l.

Q: What about the albumin ([6]; LD-CuB 0.5 mg/kg) of the same compound?
A: Its albumin is 3.1 ± 0.1 g/dL.

Q: And the bilirubin ([6]; LD-CuB 0.5 mg/kg)?
A: The bilirubin was 0.09 ± 0.04 mg/dL.

Q: And the cholesterol ([6]; LD-CuB 0.5 mg/kg)?
A: The cholesterol was 147.0 ± 5.7 mg/dL.

Q: And the creatine ([6]; LD-CuB 0.5 mg/kg)?
A: Its creatine is 0.29 ± 0.05 mg/dL.

Q: And the globulin ([6]; LD-CuB 0.5 mg/kg)?
A: The globulin was 0.7 ± 0.9 g/dL.

Q: And the total protein ([6]; LD-CuB 0.5 mg/kg)?
A: Its total protein is 3.7 ± 1.0 g/dL.

Q: And the uric acid ([6]; LD-CuB 0.5 mg/kg)?
A: Its uric acid is 3.7 ± 0.3 mg/dL.

Q: What about the PARP cleavage [7] of the same compound?
A: Its PARP cleavage is “showed cleavage of the precursor molecules in both cells”.
